Counter-ions that a name gives are not always drawn.
biological target: T1, hNET (Homo sapiens, UniProt P23975); assay: Norepinephrine (NE) uptake assay in MDCK-Net6 cells stably transfected with human hNET; assay type: cell-based; conditions: MDCK-Net6, read-out: % Inhibition @ 1 μM (hNET)
T1 construct: expressed in transfected cells
Protocol: Cells were plated at 300,000/T75 flask and cells were split twice weekly. […] Cells were plated at 250,000 cells/T75 flask and split twice weekly.
On day 1, cells were plated at 3,000 cells/well in growth medium and maintained in a cell incubator (37° C., 5% CO2). On day 2, growth medium was replaced with 200 μl of assay buffer (25 mM HEPES; 120 mM NaCl; 5 mM KCl; 2.5 mM CaCl2; 1.2 mM MgSO4; 2 mg/ml glucose (pH 7.4, 37° C.)) containing 0.2 mg/ml ascorbic acid and 10 μM pargyline. Plates containing cells with 200 μl of assay buffer were equilibrated for 10 minutes at 37° C. prior to addition of compounds. A stock solution of desipramine was prepared in DMSO (10 mM) and delivered to triplicate wells containing cells for a final test concentration of 1 μM. Data from these wells were used to define non-specific NE uptake (minimum NE uptake). Test compounds were prepared in DMSO (10 mM) and diluted in assay buffer according to test range (1 to 10,000 nM). Twenty-five microliters of assay buffer (maximum NE uptake) or test compound were added directly to triplicate wells containing cells in 200 μl of assay buffer. The cells in assay buffer with test compounds were incubated for 20 minutes at 37° C. To initiate the NE uptake, [^3H]NE diluted in assay buffer (120 nM final assay concentration) was delivered in 25 μl aliquots to each well and the plates were incubated for 5 minutes (37° C.). The reaction was terminated by decanting the supernatant from the plate. The plates containing cells were washed twice with 200 μl assay buffer (37° C.) to remove free radioligand. The plates were then inverted, left to dry for 2 minutes, then reinverted and air-dried for an additional 10 minutes. The cells were lysed in 25 μl of 0.25 N NaOH solution (4° C.), placed on a shake table and vigorously shaken for 5 minutes. After cell lysis, 75 μl of scintillation cocktail was added to each well and the plates were sealed with film tape. The plates were returned to the shake table and vigorously shaken for a minimum of 10 minutes to ensure adequate partitioning of organic and aqueous solutions. The plates were counted in a Wallac Microbeta counter (PerkinElmer) to collect the raw cpm data.
For each experiment, a data stream of cpm values collected from the Wallac Microbeta counter was downloaded to a Microsoft Excel statistical application program. Calculations of EC50 values were made using the transformed-both-sides logistic dose response program written by Wyeth Biometrics Department.

T1 sequence (P23975 whole entry): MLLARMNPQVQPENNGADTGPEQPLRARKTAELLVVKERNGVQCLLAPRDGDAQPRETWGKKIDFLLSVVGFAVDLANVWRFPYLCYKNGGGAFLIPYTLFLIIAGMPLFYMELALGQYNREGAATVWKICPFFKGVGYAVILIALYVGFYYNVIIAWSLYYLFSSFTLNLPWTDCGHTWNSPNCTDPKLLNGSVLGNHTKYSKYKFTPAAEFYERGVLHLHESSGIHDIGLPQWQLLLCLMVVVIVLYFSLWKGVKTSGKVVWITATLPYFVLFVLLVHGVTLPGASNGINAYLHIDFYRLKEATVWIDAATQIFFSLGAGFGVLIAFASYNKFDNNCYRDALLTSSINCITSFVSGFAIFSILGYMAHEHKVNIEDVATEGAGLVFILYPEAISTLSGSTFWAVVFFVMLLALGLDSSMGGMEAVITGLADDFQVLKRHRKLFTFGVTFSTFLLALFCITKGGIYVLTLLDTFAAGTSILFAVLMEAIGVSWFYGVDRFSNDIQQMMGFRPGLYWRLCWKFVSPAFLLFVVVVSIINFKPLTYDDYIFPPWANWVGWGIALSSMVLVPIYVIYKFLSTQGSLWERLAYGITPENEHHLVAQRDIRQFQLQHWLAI

Row | SMILES | inhibition at 1 µM
1 | CCn1c(=O)n([C@@H](c2ccccc2)[C@H](O)CNC)c2cc(F)ccc21 [Example 206, 1-Ethyl-5-fluoro-3-[(1S,2R)-2-hydroxy-3-(methylamino)-1-phenylpropyl]-1,3-dihydro-2H-benzimidazol-2-one hydrochloride] | 96.9%
2 | CNC[C@@H](O)[C@H](c1ccc(C)cc1)n1ccc2ccccc21 [Example 59, (1S,2R)-1-(1H-indol-1-yl)-3-(methylamino)-1-(4-methylphenyl)propan-2-ol hydrochloride] | 93.2%
3 | CNC[C@@H](O)[C@H](c1cccc(F)c1)n1ccc2ccc(F)cc21 [Example 133, (1S,2R)-1-(6-fluoro-1H-indol-1-yl)-1-(3-fluorophenyl)-3-(methylamino)propan-2-ol hydrochloride] | 96.4%
4 | CNC[C@@H](O)[C@H](c1ccccc1)n1c(=O)n(C)c2ccccc21 [Example 205, 1-[(1S,2R)-2-hydroxy-3-(methylamino)-1-phenylpropyl]-3-methyl-1,3-dihydro-2H-benzimidazol-2-one hydrochloride] | 82.9%
5 | CCn1c(=O)n([C@@H](c2cccc(F)c2)[C@H](O)CNC)c2c(F)cccc21 [Example 209, 1-Ethyl-4-fluoro-3-[(1S,2R)-2-hydroxy-3-(methylamino)-1-(3-fluorophenyl)-propyl]-1,3-dihydro-2H-benzimidazol-2-one hydrochloride] | 99.3%
6 | CNC[C@@H](O)[C@H](c1ccccc1C)n1ccc2ccccc21 (single isomer, unassigned) [Example 53, hydrochloride] | 57.4%
7 | CNC[C@@H](O)[C@H](c1cccc(OC)c1)n1ccc2ccccc21 [Example 69, (1S,2R)-1-(1H-indol-1-yl)-1-(3-methoxyphenyl)-3-(methylamino)propan-2-ol hydrochloride] | 87.5%
8 | CNC[C@@H](O)[C@H](c1ccccc1)n1ccc2cc(Cl)ccc21 [Example 152, (1S,2R)-1-(5-chloro-1H-indol-1-yl)-3-(methylamino)-1-phenylpropan-2-ol hydrochloride] | 96.2%
9 | CNC[C@@H](O)[C@H](c1cccc(F)c1)n1cc(C)c2ccccc21 [Example 143, (1S,2R)-1-(3-fluorophenyl)-3-(methylamino)-1-(3-methyl-1H-indol-1-yl)propan-2-ol hydrochloride] | 96.8%
10 | CNC[C@@H](O)[C@H](c1ccc(F)cc1)n1ccc2ccccc21 [Example 51, (1S,2R)-1-(4-fluorophenyl)-1-(1H-indol-1-yl)-3-(methylamino)propan-2-ol hydrochloride] | 87%
11 | CNC[C@H](O)[C@@H](c1ccccc1)n1ccc2ccccc21 (racemic) [Example 11, (1RS,2SR)-1-(1H-indol-1-yl)-3-(methylamino)-1-phenylpropan-2-ol hydrochloride] | 94.5%
12 | CCc1cn([C@@H](c2cccc(F)c2)[C@H](O)CNC)c2ccccc12 [Example 97, ((1S,2R)-1-(3-fluorophenyl)-3-(methylamino)-1-(3-ethyl-1H-indol-1-yl)propan-2-ol hydrochloride] | 99.6%
13 | CNC[C@@H](O)[C@H](c1cccc(C)c1)n1ccc2ccccc21 [Example 52, (1S,2R)-1-(1H-indol-1-yl)-3-(methylamino)-1-(3-methylphenyl)propan-2-ol hydrochloride] | 94.3%

same assay, conditions: test compound 1 μM; [3H]NE uptake, MDCK-Net6 cells; read-out: % Inhibition @ 1 μM (hNET)

Row | SMILES | inhibition at 1 µM
14 | CNC[C@H](O)[C@@H](c1ccccc1)n1cc(C#N)c2ccccc21 (racemic) [Example 28, 1-[(1RS,2SR)-2-hydroxy-3-(methylamino)-1-phenylpropyl]-1H-indole-3-carbonitrile hydrochloride] | 30.1%
15 | O[C@@H](CN1CCNCC1)[C@@H](c1ccccc1)n1ccc2ccccc21 (racemic) [Example 13, (1RS,2SR)-1-(1H-indol-1-yl)-1-phenyl-3-piperazin-1-ylpropan-2-ol dihydrochloride] | 34.3%
16 | CNC[C@@H](O)[C@H](c1ccccc1)N1C(=O)C2(CCCCC2)c2ccccc21 [Example 104, 1′-[(1S,2R)-2-hydroxy-3-(methylamino)-1-phenylpropyl]spiro[cyclo-hexane-1,3′-indol]-2′(1′H)-one hydrochloride] | 99.4%
17 | CNC[C@@H](O)[C@H](c1cccc(F)c1)n1cc(-c2ccc(Cl)c(Cl)c2)c2ccccc21 [Example 115, (1S,2R)-1-[3-(3,4-dichlorophenyl)-1H-indol-1-yl]-1-(3-fluorophenyl)-3-(methylamino)propan-2-ol hydrochloride] | 23.9%
18 | CNC[C@@H](O)[C@H](c1ccc(OC(F)(F)F)cc1)n1ccc2ccccc21 (single isomer, unassigned) [Example 40, hydrochloride] | 57.6%
19 | CNC[C@@H](O)[C@H](c1ccccc1)n1cc(C)c2cccc(Cl)c21 [Example 122, (1S,2R)-1-(7-chloro-3-methyl-1H-indol-1-yl)-3-(methylamino)-1-phenylpropan-2-ol hydrochloride] | 97.4%
20 | CNC[C@@H](O)[C@H](c1cccc(F)c1)n1cc(-c2cccc(F)c2F)c2ccccc21 [Example 211, (1S,2R)-1-[3-(2,3-difluorophenyl)-1H-indol-1-yl]-1-(3-fluorophenyl)-3-(methylamino)propan-2-ol hydrochloride] | 99.8%
21 | O[C@@H](CN1CCCCC1)[C@@H](c1ccccc1)n1ccc2cc(Cl)ccc21 (racemic) [Example 15, (1RS,2SR)-1-(5-chloro-1H-indol-1-yl)-1-phenyl-3-piperidin-1-ylpropan-2-ol hydrochloride] | 8.5%
22 | CNC[C@@H](O)[C@H](c1ccccc1)n1ccc2cccnc21 [Example 82, (1S,2R)-3-(methylamino)-1-phenyl-1-(1H-pyrrolo[2,3-b]pyridin-1-yl)propan-2-ol] | 53.9%
23 | CNC[C@@H](O)[C@H](c1ccccc1)N1C(=O)C(C)(C)c2cc(F)ccc21 [Example 110, 5-fluoro-1-[(1S,2R)-2-hydroxy-3-(methylamino)-1-phenylpropyl]-3,3-dimethyl-1,3-dihydro-2H-indol-2-one hydrochloride] | 86.4%
24 | CNC[C@@](C)(O)[C@H](c1ccccc1)n1ccc2ccccc21 [Example 190, (1S,2R)-1-(1H-indol-1-yl)-2-methyl-3-(methylamino)-1-phenylpropan-2-ol hydrochloride] | 53.7%
25 | O[C@@H](CNCc1ccccc1)[C@@H](c1ccccc1)n1ccc2ccccc21 (racemic) [Example 7, (1RS,2SR)-3-(benzylamino)-1-(1H-indol-1-yl)-1-phenylpropan-2-ol hydrochloride] | 25.6%
26 | CNC[C@@H](O)[C@H](c1cccc(F)c1)n1cc(-c2ccccc2)c2ccccc21 [Example 98, ((1S,2R)-1-(3-fluorophenyl)-3-(methylamino)-1-(3-phenyl-1H-indol-1-yl)propan-2-ol hydrochloride] | 99.1%
27 | CNC[C@@H](O)[C@H](c1ccccc1)n1cc(C)c2cccc(F)c21 [Example 179, (1S,2R)-1-(7-fluoro-3-methyl-1H-indol-1-yl)-3-(methylamino)-1-phenylpropan-2-ol hydrochloride] | 99.8%
28 | CNC[C@@H](O)[C@H](c1ccccc1)n1ccc2cc(C#N)ccc21 [Example 130, 1-[(1S,2R)-2-hydroxy-3-(methylamino)-1-phenylpropyl]-1H-indole-5-carbonitrile hydrochloride] | 76%
29 | CNC[C@@H](O)[C@H](c1ccccc1)n1ccc2c(OC)cccc21 [Example 78, (1S,2R)-1-(4-methoxy-1H-indol-1-yl)-3-(methylamino)-1-phenyl propan-2-ol hydrochloride] | 70.9%
30 | CNC[C@@H](O)[C@H](c1cccc(F)c1)N1C(=O)C(C)(C)c2cccc(F)c21 [Example 101, 7-fluoro-1-[(1S,2R)-1-(3-fluorophenyl)-2-hydroxy-3-(methylamino)propyl]-3,3-dimethyl-1,3-dihydro-2H-indol-2-one hydrochloride] | 98.6%

same assay, conditions: test compound 10 μM (stated in cell); [3H]NE uptake, MDCK-Net6 cells

Row | SMILES | inhibition at 10 µM
31 | Cc1cn([C@H](c2ccccc2)[C@@H](O)CNCC2CCCCC2)c2ccccc12 (racemic) [Example 9, (1RS,2SR)-3-[(cyclohexylmethyl)amino]-1-(3-methyl-1H-indol-1-yl)-1-phenylpropan-2-ol hydrochloride] | 79.2%

From US20090093469A1, “Phenylaminopropanol Derivatives and Methods of Their Use” (WYETH, priority 2004, published 2009)
